The values below come from patent US11344548B2, “Analogs of 3,5-dihydroxypentanoate for bone formation” (KAOHSIUNG MEDICAL UNIVERSITY, priority 2015, dated 2022).

Data set [1] deals with T1, HMG-CoA reductase (Homo sapiens, UniProt P04035).
T1 sequence (P04035 426-888 limits assumed): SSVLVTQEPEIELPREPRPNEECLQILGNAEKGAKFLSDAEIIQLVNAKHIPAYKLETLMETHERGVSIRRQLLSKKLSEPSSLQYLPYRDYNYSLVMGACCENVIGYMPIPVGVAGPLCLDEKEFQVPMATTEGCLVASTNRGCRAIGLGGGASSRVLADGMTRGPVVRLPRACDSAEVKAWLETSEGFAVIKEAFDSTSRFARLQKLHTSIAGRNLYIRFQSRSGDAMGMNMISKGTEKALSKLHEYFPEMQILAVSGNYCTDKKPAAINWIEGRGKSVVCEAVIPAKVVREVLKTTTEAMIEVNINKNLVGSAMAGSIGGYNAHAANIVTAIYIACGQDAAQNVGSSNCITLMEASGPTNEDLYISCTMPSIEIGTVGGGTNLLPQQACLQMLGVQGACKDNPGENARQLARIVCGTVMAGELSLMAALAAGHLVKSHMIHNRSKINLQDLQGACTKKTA
Description: HMG-CoA reductase inhibition. The data set is classed as biochemical. The conditions noted are these: for IC50: HMG-CoA reductase 17.4 nM final, absorbance 340 nm; for effective inhibitory concentration compared with simvastatin: HMG-CoA reductase. How it is done:
HMG-CoA Reductase Inhibition
A 0.1 M phosphate buffer containing 100 μM […], 330 μM NADPH, 2% DMSO and 1 mg/mL BSA was firstly prepared. Compounds 1 and 4˜11 were added dissolved in phosphate buffer at various concentrations, then added HMG-CoA reductase (the final concentration is 17.4 nM) and mixed for 5 minutes. The absorbance of the solution was measured at 340 nm. The IC50 values were analyzed via nonlinear least-squares using Sigma 10 to determine the HMG-CoA reductase inhibition of compounds.

The test system of data set [2] is D1 cells. As to the kind of experiment: Cytotoxicity MTT assay on D1 cells. The data set is classed as cell-based, rat. To be noted: for IC50: Rattus norvegicus, 72 h, MTT, 3 days. How it is done:
D1 cell is more sensitive than hADSC cell by drug treatment.
The cytotoxicity of compounds 4˜11 was analyzed using MTT assay. D1 cells were cultured to an initial culture density of 5×10^3 cells per well in a bone medium. The bone medium was a DMEM medium containing 10% Fetal bovine serum (FBS), 100 U/mL penicillin, 100 μg/mL streptomycin, […] ascorbic acid, 1% non-essential amino acids (NEAA) and 1.5 g sodium bicarbonate. After the cells were seeded, the bone medium with compounds 4˜11 respectively was set as the experimental group, the bone medium without compound was set as the blank test group, and all were cultured at 37° C. for 3 days. The MTT agent was added to the culture medium for 3 hours, then the medium was removed and the cells were washed with PBS, and 100 μL of DMSO was added to the wells to promote the dissolution of formazan. The DMSO solution containing formazan was measured using UV spectrophotometer at 595 nm wavelength, and the survival of cells was judged by the value of absorbance.
(Tetrazolium assays rely on reduction of a dye to a coloured formazan, in cell work by metabolically active cells.)

For data set [3], the system named is D1 cells. The data set is classed as cell-based. How it is done: (§1) The D1 cells, purchased from American Type Culture Collection, were plated in 48-well plates at a density of 3×10^4 cells/well. Once confluence was obtained, the cells were cultured in bone medium (BM, prepared with DMEM, 10% FBS, 100 U/mL penicillin, 100 μg/mL streptomycin, […] ascorbic acid, 1% NEAA, 1.5 g sodium bicarbonate) in the presence of compound 1. After 3 days, BM was replaced with an osteogenesis induction medium (OIM prepared with BM, 10^−2 M β-glycerophosphate and 10^−7 M dexamethasone). […] The medium was changed every 2 days. For the quantitative value of mineralization, the cells were washed with PBS triplex and fixed with 10% formalin for 30 minutes at room temperature. Thereafter, the cells were washed with deionized water triplex, and then stained with Alizarin Red S solution ([…], 80 mM, pH 4) for 10 minutes at room temperature. The cells were washed with deionized water triplex and dried overnight at room temperature. The Alizarin Red S was released from the cell matrix by being mixed with 10% acetic acid(aq) for 30 minutes. The concentration of Alizarin Red S was determined by measuring the absorbance at 415 nm.
The abilities of compounds 4˜11 to induce cell mineralization were evaluated followed the same method above, only remove dexamethasone from the recipe of osteogenesis induction medium.

Data set [4] can be described thus: Combination with HAP monitored by fluorescent microscope. The data set is classed as physicochemical. The conditions noted are these: FIG. 6. The source says: If compound 1-F is combined with HAP, it can be monitored using a fluorescent microscope.
For data set [5], the system named is human adipose stem cells (hADSC). Description: Cytotoxicity MTS assay on human adipose stem cells. How it is done: Statins are known agents that induced stem cells to be osteogenesis.
In a 96-well plate, human adipose stem cells (hADSC) were cultured to an initial culture density of 6×10^3 cells per well in K medium (Keratinocyte-SFM, GIBCO-Invitrogen Corporation). […] The MTS agent was added to the culture medium for 3 hours, then the medium was removed and the cells were washed with PBS (phosphate buffered saline), and 100 μL of DMSO (dimethyl sulfoxide) was added to the wells to promote the dissolution of formazan. The DMSO solution containing formazan was measured using UV spectrophotometer at 490 nm wavelength, and the survival of cells was judged by the value of absorbance.

In data set [6] the test system is D1 cells. As to the kind of experiment: Induction of mineralization (Alizarin Red S), FIG. 7. In kind it is cell-based, rat. How it is done: Following the tests above, the ability of inducing mineralization of the compounds to D1 cells was tested.
as §1

The subject of data set [7] is zebrafish. Description: Bone-targeting of test compounds in zebrafish. The data set is classed as in vivo. The conditions noted are these: living zebrafish, 3.2 μM, fluorescence microscope, FIG. 9(a), 9(b).
Description: Calcein, which is a known staining dye for the mineral in animals, was used as a positive control group.
The AB strain of wild-type zebrafish was used for this study. Embryos were collected after natural spawning, staged according to standard criteria, and raised synchronously at 28.5° C. in Hank's buffer (13.7 mM NaCl, 540 M KCl, 25 μM Na2HPO4, 44 μM KH2PO4, 300 μM CaCl2, 100 μM MgSO4, 420 μM NaHCO3, pH 7.4). Zebrafish larvae at 2 dpf were exposed to test compounds (3.2 μM) for 3 days in a 24-well plate. At 7 dpf, the fish were anesthetized using tricaine-methanesulfonate (MS 222) and mounted on depression glass slides with methyl-cellulose (3%), and the images of the zebrafish were acquired using a Leica DM-6000 CS fluorescence microscope (Leica Instruments Inc., Wetzlar, Germany). All of the images were acquired using a SPOT Xplorer Digital camera (Diagnostic Instruments, Inc., Sterling Heights, Mich., USA). Each image was taken at 60-sec.
The subject of data set [8] is zebrafish. As to the kind of experiment: Bone formation induced by test compounds in zebrafish (calcein staining). The data set is classed as in vivo. The conditions noted are these: zebrafish larvae, 0.32 μM, calcein stain, FIG. 9(c). How it is done:
The non-oligopeptide derivative 7 which had the most outstanding overall performance was selected from the above experiments. In the study for increasing the bone mass of zebrafish, when 0.1 or 1 μM of compound 7 were treated, both can promote bone formation in the zebrafish, and the increase range was between 30% and 50% compared with the non-administration group.
Zebrafish larvae at 2 dpf were treated with test compounds (0.32 μM) for 6 days in a 24-well plate. At 7 dpf, the fish were transferred to 6-cm dishes (8 fish/dish) for bone staining using calcein solution. The calcein solution was prepared at 0.2% by dissolving 2 g of calcein powder (Sigma Chemical, St. Louis, Mo.) in 1 liter of deionized water. The immersion time was 10 minutes at 7 dpf. After the immersion, the embryos were rinsed a number of times in fresh water, and then allowed to stand for 10 mins to allow the excess stain diffusion from the larvae tissue. The embryos were then euthanized in tricaine-methanesulfonate (MS 222) and mounted on depression glass slides with methyl-cellulose (3%). […] Each image was taken at 200 mini-seconds, then the fluorescence of the calcein stain images was calculated using NIH Image J (NIH open software with Macbiophotonics plugins). […]

Data set [9] deals with zebrafish. The conditions noted are these: reported by Fleming; cited from earlier work.
Data set [10] can be described thus: Solubility comparison. In kind it is physicochemical. The conditions noted are these: compared with simvastatin.

The structures appear in SMILES notation. Like-named read-outs stand apart in the source and are kept apart here.

Broadly, the IC50 is the midpoint of a concentration-inhibition curve. A low value points to greater potency. As to `CCC(C)(C)C(=O)O[C@H]1C[C@@H](C)C=C2C=C[C@H](C)[C@H](CC[C@@H](O)C[C@@H](O)CC(=O)NCCO)[C@H]21` [Compound 5], the IC50 in data set [1] amounted to 1.02 ± 0.0509 µM; in data set [2] it was 117 ± 8.07 µM. The “induction of cell mineralization” value in data set [3] (1 μM, Day 9, FIG. 8(a)) is reported as “clearly induced cell mineralization”; in [3] (1 μM, Day 11, FIG. 8(b)), “excellent ability to induce cell mineralization”.
Consider `CCCNC(=O)C[C@H](O)C[C@H](O)CC[C@@H]1[C@@H]2C(=C[C@H](C)C[C@@H]2OC(=O)C(C)(C)CC)C=C[C@@H]1C` [Compound 11], for which the values for the 50% inhibitory concentration (IC50) in data set [1] and in data set [2] were 21.6 µM and 94.1 ± 10.6 µM, respectively.
Consider `CCC(C)(C)C(=O)O[C@H]1C[C@@H](C)C=C2C=C[C@H](C)[C@H](CC[C@@H](O)C[C@@H](O)CC(=O)NCc3ccccn3)[C@H]21` [Compound 9], for which, in [1], the “effective inhibitory concentration compared with simvastatin” value is 500 fold and the IC50 was over 30 µM. For the same molecule, the IC50 in data set [2] is 97.3 ± 7.9 µM.
Regarding `CCC(C)(C)C(=O)O[C@H]1C[C@@H](C)C=C2C=C[C@H](C)[C@H](CC[C@@H](O)C[C@@H](O)CC(=O)N[C@@H](CCCCNC(=O)[C@H](CC(=O)O)NC(=O)[C@H](CC(=O)O)NC(=O)[C@H](CC(=O)O)NC(=O)[C@H](CC(=O)O)NC(=O)[C@H](CC(=O)O)NC(=O)[C@H](CC(=O)O)NC(=O)[C@H](CCCCNC(=S)Nc3ccc4c(c3)C(=O)OC43c4ccc(O)cc4Oc4cc(O)ccc43)NC(=O)OCCOCCOCCOCCOCCOCCOCCOCCOCCOCCOCCOC)C(=O)NCC(=O)O)[C@H]21` [Compound 1-F], the “effective inhibitory concentration compared with simvastatin” value in [1] was determined as 500 fold. Further, the “combination with HAP” value in data set [4] is given as “combines on the surface of HAP”. The “IC50 compared with simvastatin” value in [5] (cytotoxicity, hADSC) was 300 fold. Further, the induction of mineralization entry in data set [6] (15 μM) and in data set [6] (over 20 μM) was “can induce mineralization of D1 cells” each time. Moreover, in data set [7], the “bone-targeting (fluorescence on the bones)” value is on record as “targets the bones successfully”. Further, the “promotion of bone formation compared with the non-administration group (control)” value in [8] was “up to 50%”.
On to `CCC(C)(C)C(=O)O[C@H]1C[C@@H](C)C=C2C=C[C@H](C)[C@H](CC[C@@H]3C[C@@H](O)CC(=O)O3)[C@H]21` [Simvastatin, (1S,3R,7S,8S,8aR)-8-{2-[(2R,4R)-4-hydroxy-6-oxotetrahydro-2H-pyran-2-yl]ethyl}-3,7-dimethyl-1,2,3,7,8,8a-hexahydronaphthalen-1-yl2,2-dimethylbutanoate, reference compound], for which the IC50 in [5] (Homo sapiens, 72 h) turned out to be 3.25 ± 0.31 µM; in [2], 3.25 ± 0.31 µM. The “promotion of bone formation compared with the non-administration group (control)” value in data set [8] is on record as “did not promote bone formation”. Besides, the “bone growth of zebrafish” value in [9] was “does not benefit in the bone growth of zebrafish”.
Regarding `C=CCNC(=O)C[C@H](O)C[C@H](O)CC[C@@H]1[C@@H]2C(=C[C@H](C)C[C@@H]2OC(=O)C(C)(C)CC)C=C[C@@H]1C` [Compound 10], the concentration for half-maximal inhibition (IC50) in [1] turned out to be 26.6 µM; in data set [2], 92.2 ± 2.1 µM.
Turning to `CCC(C)(C)C(=O)O[C@H]1C[C@@H](C)C=C2C=C[C@H](C)[C@H](CC[C@@H](O)C[C@@H](O)CC(=O)NN)[C@H]21` [Compound 8], the IC50 was found to be 0.95 ± 0.0801 µM in data set [1] and 106 ± 3.3 µM in data set [2].
Regarding `CCC(C)(C)C(=O)O[C@H]1C[C@@H](C)C=C2C=C[C@H](C)[C@H](CC[C@@H](O)C[C@@H](O)CC(=O)O)[C@H]21` [Compound 4, simvastatin acid, reference compound], the figures for the IC50 in [1] and in data set [2] were 0.263 ± 0.0834 µM and 29.4 ± 1.02 µM, respectively. The “induction of cell mineralization” value in data set [3] (4 μM, FIG. 8(c)) was “can only induce mineralization effectively under a concentration of 4 μM”.
For `CCC(C)(C)C(=O)O[C@H]1C[C@@H](C)C=C2C=C[C@H](C)[C@H](CC[C@@H](O)C[C@@H](O)CC(=O)NCCOCCO)[C@H]21` [Compound 7], the IC50 in [1] amounted to 0.171 ± 0.0092 µM; in [2], 269.1 ± 1.04 µM. Also, in data set [2], the “IC50 compared with simvastatin” value came to 83 fold. In addition, the “induction of cell mineralization” value in data set [3] (1 μM, Day 9, FIG. 8(a)) is “clearly induced cell mineralization”; in data set [3] (1 μM, Day 11, FIG. 8(b)) it was “excellent ability to induce cell mineralization”; in data set [3] (4 μM, FIG. 8(c)), “obvious ability to induce cell mineralization”. Moreover, the solubility entry in data set [10] is listed as “higher than simvastatin”.
As to `CCC(C)(C)C(=O)O[C@H]1C[C@@H](C)C=C2C=C[C@H](C)[C@H](CC[C@@H](O)C[C@@H](O)CC(=O)NCCCO)[C@H]21` [Compound 6], the concentration for half-maximal inhibition (IC50) in data set [1] was found to be 1.13 ± 0.0895 µM; in data set [2], 161 ± 3.76 µM. In addition, the “induction of cell mineralization” value in data set [3] (1 μM, Day 11, FIG. 8(b)) was “excellent ability to induce cell mineralization”.
On to `O=C(O)CN(CC(=O)O)Cc1cc2c(cc1O)Oc1cc(O)c(CN(CC(=O)O)CC(=O)O)cc1C21OC(=O)c2ccccc21` [Calcein, reference compound], for which the “bone-targeting (fluorescence on the bones)” value in data set [7] is on record as “fluorescent staining on the bone can be observed”.
